Reference: patent EP1198478B1, “SOMATOSTATIN ANALOGS AND THEIR USE FOR THE TREATMENT OF CANCER” (Dabur Research Foundation, priority 2000, dated 2002)

Columns and labels:
Format in all cases: cell-based
Settings in all cases: 48 hours
PA-1 (Ovary) = experiment: MTT cytotoxicity assay, PA-1 cells
Description: (§1) The cytotoxic effect of peptides SEQ ID NO: 2, SEQ ID NO: 3, SEQ ID NO: 6, and SEQ ID NO: 9, was studied by MTT assay which is based on the principle of uptake of MTT [3-[4,5-dimethylthiazol-2-yl]-2,5-diphenyl tetrazolium bromide], a tetrazolium salt by the metabolically active cells where it is metabolized by active mitochondria into a blue colored formazan product which can be read spectrophotometrically. Briefly, tumor cells PTC (primary human colon cancer cell line), KB (Oral squamous), U87MG (Glioblastoma), HBL100 (Breast), HeP2 (Laryngeal), ECV304 (Endothelial), PA-1 (Ovary) and L132 (Lung) were incubated with the peptide analogs for 48 hours at 37°C in a 96-well culture plate, followed by the addition of 100 µg MTT and further incubation of 1 hour. The formazan crystals formed inside the cells were dissolved with a detergent comprising 10% Sodium dodecyl sulfate and 0.01 N HCl and optical density read on a multiscan ELISA reader. The optical density was directly proportional to the number of proliferating and metabolically active cells.

KB (Oral squamous) = experiment: MTT cytotoxicity assay, KB cells
Description: as §1

U87MG (Glioblastoma) = experiment: MTT cytotoxicity assay, U87MG cells
Description: as §1

ECV304 (Endothelial) = experiment: MTT cytotoxicity assay, ECV304 cells
Description: as §1

HeP2 (Laryngeal) = experiment: MTT cytotoxicity assay, HeP2 cells
Description: as §1

HBL100 (Breast) = experiment: MTT cytotoxicity assay, HBL100 cells
Description: as §1

L132 (Lung) = experiment: MTT cytotoxicity assay, L132 cells
Description: as §1

[1] = system: PTC (primary human colon cancer cell line); experiment: MTT cytotoxicity assay, PTC cells
Description: as §1

| Substance | Percentage cytotoxicity (PA-1 (Ovary); 1nM) | Percentage cytotoxicity (PA-1 (Ovary); 10 nM) | Percentage cytotoxicity (PA-1 (Ovary); 1µM) | Percentage cytotoxicity (PA-1 (Ovary); 100n M) | Percentage cytotoxicity (KB (Oral squamous); 1nM) | Percentage cytotoxicity (KB (Oral squamous); 10 nM) | Percentage cytotoxicity (KB (Oral squamous); 1µM) | Percentage cytotoxicity (KB (Oral squamous); 100n M) | Percentage cytotoxicity (U87MG (Glioblastoma); 1nM) | Percentage cytotoxicity (U87MG (Glioblastoma); 10 nM) | Percentage cytotoxicity (U87MG (Glioblastoma); 1µM) | Percentage cytotoxicity (U87MG (Glioblastoma); 100n M) | Percentage cytotoxicity (ECV304 (Endothelial); 1nM) | Percentage cytotoxicity (ECV304 (Endothelial); 10 nM) | Percentage cytotoxicity (ECV304 (Endothelial); 1µM) | Percentage cytotoxicity (ECV304 (Endothelial); 100n M) | Percentage cytotoxicity (HeP2 (Laryngeal); 1nM) | Percentage cytotoxicity (HeP2 (Laryngeal); 10 nM) | Percentage cytotoxicity (HeP2 (Laryngeal); 1µM) | Percentage cytotoxicity (HeP2 (Laryngeal); 100n M) | further results |
| --- | --- | --- | --- | --- | --- | --- | --- | --- | --- | --- | --- | --- | --- | --- | --- | --- | --- | --- | --- | --- | --- |
| D-Phe-Cys-Tyr-D-Trp-Orn-Aib-Pen-Thr-NH2 [SEQ ID NO: 9] | 4.6 ± 1.0% | 12.8 ± 1.4% | 16.6 ± 3.1% | 22.7 ± 2.2% | 28.0 ± 1.6% | 27.0 ± 4.8% | 12.0 ± 1.2% | 18.0 ± 5.2% | 13.9 ± 2.5% | 29.7 ± 2.4% | 42.9 ± 1.2% | 53.3 ± 1.4% | 18.0 ± 2.9% | 23.9 ± 3.1% | 12.9 ± 1.6% | 19.9 ± 2.6% | 15.6 ± 3.6% | 21.4 ± 4.4% | 19.9 ± 2.4% | 27.9 ± 2.5% | Percentage cytotoxicity (HBL100 (Breast); 1nM): 26.9 ± 2.6%; Percentage cytotoxicity (HBL100 (Breast); 10 nM): 23.9 ± 4.4%; Percentage cytotoxicity (HBL100 (Breast); 1µM): 7.9 ± 1.2%; Percentage cytotoxicity (HBL100 (Breast); 100n M): 14.9 ± 2.2%; Percentage cytotoxicity (L132 (Lung); 1nM): 14.9 ± 2.6%; Percentage cytotoxicity (L132 (Lung); 10 nM): 26.1 ± 4.8%; Percentage cytotoxicity (L132 (Lung); 1µM): 12.9 ± 1.8%; Percentage cytotoxicity (L132 (Lung); 100n M): 22.8 ± 2.6% |
| D-Phe-Cys-Tyr-D-Trp-Lys-Ac5c-Pen-Thr-NH2 [SEQ ID NO: 6] | 19.4 ± 1.0% | 25.9 ± 1.4% | 8.0 ± 3.3% | 22.6 ± 2.2% | 28.0 ± 1.2% | 23.0 ± 4.8% | 12.9 ± 1.1% | 19.0 ± 5.2% | 39.0 ± 3.5% | 40.4 ± 2.4% | 39.5 ± 1.2% | 42.9 ± 1.4% | 18.9 ± 3.9% | 24.9 ± 3.8% | 7.9 ± 1.6% | 13.9 ± 2.9% | 8.0 ± 3.6% | 14.8 ± 4.4% | 10.6 ± 2.4% | 11.0 ± 2.5% | Percentage cytotoxicity ([1]; 1nM): 12±1.5%; Percentage cytotoxicity ([1]; 10 nM): 11 ± 7.1%; Percentage cytotoxicity ([1]; 1µM): 9 ± 2.1%; Percentage cytotoxicity ([1]; 100n M): 8 ± 5.2%; Percentage cytotoxicity (HBL100 (Breast); 1nM): 15.7 ± 4.5%; Percentage cytotoxicity (HBL100 (Breast); 10 nM): 14.5 ± 2.8%; Percentage cytotoxicity (HBL100 (Breast); 1µM): 8.0 ± 1.4%; Percentage cytotoxicity (HBL100 (Breast); 100n M): 12.6 ± 3.2%; Percentage cytotoxicity (L132 (Lung); 1nM): 14.9 ± 1.2%; Percentage cytotoxicity (L132 (Lung); 10 nM): 25.7 ± 4.8%; Percentage cytotoxicity (L132 (Lung); 1µM): 13.7 ± 5.8%; Percentage cytotoxicity (L132 (Lung); 100n M): 22.9 ± 2.6% |
